# Assay results as given in ChEMBL document CHEMBL3507680, “University of Dundee, Gates Library screen for HepG2 cell viability”.
# Experiment: Human HepG2 cell viability assay in 384 well format
# Assay type: toxicity, cell-based
# Set-up: dose 125 nL, time 70.5 hour; cytotoxicity at 70.5 h: concentration not given beside the values
# Settings: HepG2 cells, read-out: Inhibition
compound,measurement,value
CSCCC(=O)N1CCCC(n2ccnc2)C1 (stereo unspecified),cytotoxicity at 70.5 h,-6.36%
COCC(=O)N1C[C@H]2CC[C@@]3(N=C(c4ccccc4)NC3=O)[C@H]2C1,cytotoxicity at 70.5 h,-3.3%
O=C(NC1CCCC1)c1cc(C2CCCNC2)n[nH]1 (stereo unspecified),cytotoxicity at 70.5 h,-3.17%
COc1ccc(-c2nc(C3CCNCC3)cc3c2ncn3C)cc1,cytotoxicity at 70.5 h,11.7%
CCOc1ccc(CC(=O)N2CCN(c3nccn3CC)CC2)cc1,cytotoxicity at 70.5 h,-1.22%
Cc1nc(CN2CCN(C(=O)NC(C)c3cccnc3)CC2)cs1 (stereo unspecified),cytotoxicity at 70.5 h,30.6%
CCCOc1ccccc1NCC(=O)Nc1ccc(CC)cc1,cytotoxicity at 70.5 h,-6.36%
COC(=O)N1CCCC(C(=O)Nc2ccccc2CN2CCCC2)C1 (stereo unspecified),cytotoxicity at 70.5 h,-0.192%
Cc1csc(C2(NC(=O)CCc3ccncc3)CCCC2)n1,cytotoxicity at 70.5 h,-7.21%
CC(C)NC(=O)[C@@H]1C[C@@H](N)CN1C(=O)c1cc2c([nH]c1=O)CCCC2,cytotoxicity at 70.5 h,-6.99%
CCn1nc(C)c2nc(C(C)C)nc(NCC(C)O)c21 (stereo unspecified),cytotoxicity at 70.5 h,-6.78%
Cc1cnn(CC2CCCCN2C(=O)c2sccc2C#N)c1 (stereo unspecified),cytotoxicity at 70.5 h,-4.1%
CNC(=O)C1CN(C)CCN(C(=O)CCn2nnc3ccccc32)C1 (stereo unspecified),cytotoxicity at 70.5 h,0.266%
COc1ccc2c(ccn2CC(=O)Nc2n[nH]c(CC(C)C)n2)c1,cytotoxicity at 70.5 h,-11.7%
CCn1nc2c(cc1=O)CN(Cc1cc(C)on1)CC2,cytotoxicity at 70.5 h,-3.67%
Cc1cc(-c2ccc(C(=O)O)cc2)nc(C2CCN(C(C)C)CC2)n1,cytotoxicity at 70.5 h,0.538%
CCc1ncnc(N(C)CC2CCCCO2)c1F (stereo unspecified),cytotoxicity at 70.5 h,2.36%
Cc1cccc(N(CCC(N)=O)C(=O)c2cc(-n3cccn3)ccn2)c1,cytotoxicity at 70.5 h,-12%
O=C(O)CN1CCC(C(F)(F)F)CC1,cytotoxicity at 70.5 h,-2.76%
Cc1nc(C)c(CC(=O)N2CCC(c3ccn4nccc4n3)CC2)s1,cytotoxicity at 70.5 h,-1.07%
CC(C)=CCN1CCN(C(=O)COc2ccccc2)[C@H]2CS(=O)(=O)C[C@H]21,cytotoxicity at 70.5 h,1.61%
COc1cccc(CN2C[C@@H]3COC[C@]3(COCc3ccccn3)C2)c1,cytotoxicity at 70.5 h,2.25%
CN(C)S(=O)(=O)N1CCC2(CC1)CC(OCC1CC1)CO2 (stereo unspecified),cytotoxicity at 70.5 h,-4.38%
Cc1cccc(CN2C(=O)C[C@H]3[C@@H]2CCN3Cc2ccccn2)n1,cytotoxicity at 70.5 h,23.7%
CN(Cc1ccncc1)C(=O)NC1CCS(=O)(=O)C1 (stereo unspecified),cytotoxicity at 70.5 h,-3.72%
Cc1ccc(CNc2cc3c(cc2Cl)NC(=O)CO3)cc1C,cytotoxicity at 70.5 h,-5.39%
O=C1C[C@H]2CC[C@@H](CN1)N2c1cc(-c2ccccc2F)nc2ccnn12,cytotoxicity at 70.5 h,-4%
Cc1ccc([C@@H]2CN(S(=O)(=O)N3CCC(C)CC3)C[C@H]2N(C)C)cc1,cytotoxicity at 70.5 h,-12.1%
Cc1cc(CN2C[C@H](N3CCOCC3)[C@@H]3OCCC[C@@H]32)oc1C,cytotoxicity at 70.5 h,-7.89%
Cc1ccc(CN2C[C@@H](OCc3ccccn3)[C@H]3COC[C@H]32)o1,cytotoxicity at 70.5 h,-5%
Cc1occc1C(=O)NCC(=O)N1CCCC(c2ccccc2)CC1 (stereo unspecified),cytotoxicity at 70.5 h,-3.67%
CCCn1nnnc1CN1Cc2ccccc2CC1c1nnc(C)o1 (stereo unspecified),cytotoxicity at 70.5 h,-8.77%
COCCN1CCCC2(CCN(c3ccsc3)C2=O)C1 (stereo unspecified),cytotoxicity at 70.5 h,-7.27%
Cc1cccc2c1ccn2CC(=O)O,cytotoxicity at 70.5 h,6.19%
CCc1noc(CNc2ccc(F)cc2OCC2CC2)n1,cytotoxicity at 70.5 h,-7.55%
CNS(=O)(=O)c1ccccc1N1CCN(C(=O)NC(C)C)CC1,cytotoxicity at 70.5 h,-5.21%
Cc1cc(C)n(CC2CCCN2C(=O)c2cccc3c2OCO3)n1 (stereo unspecified),cytotoxicity at 70.5 h,-3.49%
COCc1nccc(C2CCCN(Cc3cccc(C#N)c3)C2)n1 (stereo unspecified),cytotoxicity at 70.5 h,-9.48%
Cc1cc(C)cc(C(=O)NCCCC2(C3OCCO3)CCOCC2)c1,cytotoxicity at 70.5 h,1.06%
CC(C)c1ccccc1NC(=O)N1C[C@@H]2CC[C@H](C1)N(C)C2=O,cytotoxicity at 70.5 h,27.2%
NC(=O)CN1CCC(c2noc3cc(F)ccc23)CC1,cytotoxicity at 70.5 h,39.4%
CC(C)=CCCC(C)CN1CCC(n2cc(C(=O)NCCO)nn2)CC1 (stereo unspecified),cytotoxicity at 70.5 h,-4.56%
NCC1CCCCN1C(=O)Cc1cccc(Cl)c1 (stereo unspecified),cytotoxicity at 70.5 h,-6.28%
Cc1nnc(NC(=O)CN(C)C2CCCN(c3cccnn3)C2)s1 (stereo unspecified),cytotoxicity at 70.5 h,1.26%
c1cc(CNc2ccc(-c3nc(C4CC4)no3)cn2)no1,cytotoxicity at 70.5 h,-8.43%
CC(C)(C)c1ccc(C2(C(=O)NCCS(C)(=O)=O)CC2)cc1,cytotoxicity at 70.5 h,-6.58%
CC(C)(C)CN1CC[C@H](c2nnc(Cc3c[nH]c4ccccc34)o2)C1,cytotoxicity at 70.5 h,15.2%
COc1ccnc(NCC2CN(C3CC3)CCO2)n1 (stereo unspecified),cytotoxicity at 70.5 h,10.1%
Clc1ccccc1-c1nnc(CN2CCCC2Cn2cncn2)o1 (stereo unspecified),cytotoxicity at 70.5 h,-2.55%
COC(=O)NCC(=O)N1CCC(c2nc3cc(F)ccc3[nH]2)CC1,cytotoxicity at 70.5 h,-2%
COc1cc(C(=O)NC(C)(C)CN2CCN(C)CC2)c2ccccc2n1,cytotoxicity at 70.5 h,-11.5%
Cc1cccc(N2CC[C@H]3[C@H]2CCN3C(=O)c2cnn(C)c2)n1,cytotoxicity at 70.5 h,-8.26%
O=C(NCC1CN(c2ncccn2)Cc2nccn2C1)c1cccnc1 (stereo unspecified),cytotoxicity at 70.5 h,-4.53%
CC(=O)N1CCC2(CC1)COCCN2CCN(C)C,cytotoxicity at 70.5 h,-10.7%
Cc1cc(C(=O)N2CC[C@@H]3CN(c4ncccn4)CCO[C@@H]3C2)c(C)o1,cytotoxicity at 70.5 h,-12.2%
Cc1ccc2c(c1)N(C(=O)C1CCCOC1)CCC2 (stereo unspecified),cytotoxicity at 70.5 h,-4.9%
